The source of these data is PMC12592400, “A unique inhibitor conformation selectively targets the DNA polymerase PolC of Gram-positive priority pathogens” (Nature Communications, 2025).

SMILES strings stand for the structures. Values after ≈ are worked out from the molar mass of the structure shown. Read-outs that look alike come from different tables or passages of the source.

For test [1], the system named is E. faecium strains with polC mutations (A1281T, F1276I, F1276L, F1276S). Description: Cross-resistance MIC of reduced susceptible E. faecium strains. The format is cell-based, Enterococcus faecium. As to conditions: for MIC: Enterococcus faecium. The method, then:
Strains with reduced susceptibility to ACX compounds were generated by WuXi Apptec on behalf of Acurx Pharmaceuticals, Inc., using E. faecium ATCC 700221 as parental strain.
Agar MICs for the wild-type strain were determined on Blood agar (Huankai). Compounds and linezolid were dissolved in 100% DMSO and vancomycin in ultrapure water. Strains were inoculated onto agar plates, incubated at 37 °C for 20-24 h after which colonies were suspended in sterile 0.9% saline at different bacterial concentrations. 5 μL of bacterial suspensions was individually spotted on agar plates supplemented with compounds at different concentrations, resulting in final concentrations of 10^–1, 10^–2, 10^–3, 10^–4, 10^–5, 10^–6, and 10^–7 per spot. After incubation for 20-24 h, bacterial growth was assessed by visual inspection.
For frequency of resistance (FOR) studies, colonies from the agar plate were suspended into sterile 0.9% saline to get 10^8-10^9 CFU bacterial cells per mL. […] The suspensions were also serially diluted with 0.9% saline and spotted onto agar to determine the actual inoculum. All agar plates were incubated at 37 °C for 48 h. FOR was defined as colony number on each compound-containing plate per CFU number of actual inoculum. Resistant colonies were subcultured on the corresponding compound plates to confirm that colonies were resistant and stable.
Confirmed resistant colonies were used for cross-resistance studies, as described above.
Paired-end short read sequencing data from selected mutants (generated by BGISEQ) as well as the corresponding wild-type parental strain was analysed against the reference genomes for E. faecium strain ATCC 700221 (https://genomes.atcc.org/genomes/f9d13a716ccb4f78) using Geneious R10.2.6 (Biomatters Ltd). Variants were called using the Find Variants/SNPs function with a minimum coverage of 10 and a minimum frequency of 0.8. […] This identified the following mutations in the polC gene: D1103Y in strain Efa4; F1276L in strains Efa030, Efa038, and Efa039; F1276I in strains Efa1 and Efa037; F1276S in strain Efa3; A1281T in strains Efa036, Efa040 and Efa041. Strains Efa036, Efa039, and Efa040 each had only one polymorphism identified.

Test [2] relates to Enterococcus faecium ATCC 700221 (VRE; vancomycin-resistant). Description: Broth microdilution MIC. It counts as cell-based. Particulars: for MIC: Enterococcus faecium, read-out: Measured MIC; for Measured MIC: Table 2, polC WT, strain ATCC 700221. The method, then:
(§1) Minimal inhibitory concentrations (MICs) were determined by WuXi Apptec, on behalf of Acurx Pharmaceuticals, Inc., for the Gram-positive pathogens: Enterococcus faecium ATCC 700221 (VRE; vancomycin-resistant), Enterococcus faecalis ATCC 29212, Staphylococcus aureus NRS384 (MRSA; methicillin-resistant), Staphylococcus aureus ATCC 29213 (MSSA; methicillin-sensitive), and Streptococcus pneumoniae ATCC 49619 (PRSP; penicillin-resistant). As a control, Gram-negative Escherichia coli ATCC 25922 was included. All strains were obtained from ATCC with the exception of Staphylococcus aureus NRS384, which was obtained from NARSA (Network on Antimicrobial Resistance in Staphylococcus aureus, now part of BEI resources). Bacteria were cultured according to the manuals provided by the suppliers and stored in 25% glycerol (final concentration) at –80 °C.
(§2) Bacterial strains were streaked out onto MHA plates (Mueller-Hinton II Agar; BD-211438) and incubated at 37 °C for 20 h except for S. pneumoniae and Enterococci, which were streaked on blood agar (Huankai-24070). S. pneumoniae was incubated in 5% CO2. Single colonies were suspended in 5 mL sterile saline, the turbidity was adjusted to 0.20 (Siemens MicroScan turbidity metre; equal to ~1.0 × 10^8 colony forming units (CFU)/mL) and then diluted 200x in MHIIB (Mueller-Hinton II […] (BD-211438)) medium. The MHIIB media was supplemented with 5% Lysed Horse Blood (Shanghai YuanMu Biological Technology Co. Ltd. YM-U161) for S. pneumoniae.
(§3) ACX compounds were dissolved in pure DMSO (Sigma 276855) to a concentration of 20 mg/mL. From this, twofold serial dilutions (from […]) in DMSO were transferred to a 96-well source-plate (Axygen-wipp02280) with pure DMSO as a control. 2 µL from the source plate was then transferred into 96-well culture plates (Costar 3788) and inoculated with 198 µL of the bacterial suspension so that each well contained ~5.0 × 10^5 CFU/mL bacteria, 1% DMSO and serially diluted compounds at 0 µg/mL and 0.0625-64 µg/mL in 100 µl medium. For NRS384, which was tested in a separate experiment, 99 µL of bacterial suspension was added to 1 µL of compound. The plates were incubated in ambient atmosphere at 37 °C for 20 h.

The test system of test [3] is Staphylococcus aureus ATCC 29213 (MSSA; methicillin-sensitive). Description: Broth microdilution MIC. Particulars: read-out: Measured MIC. The format is cell-based. The method, then: as §1, §2, §3
Background: Dilution methods test growth across graded concentrations, often in twofold steps.

Test [4] relates to Staphylococcus aureus NRS384 (MRSA; methicillin-resistant). Description: Broth microdilution MIC. It counts as cell-based. As to conditions: read-out: Measured MIC. The protocol: as §1, §2, §3
The subject of test [5] is Enterococcus faecalis ATCC 29212. Description: Broth microdilution MIC. It counts as cell-based. The protocol:
as §1, §2, §3

The test system of test [6] is Streptococcus pneumoniae ATCC 49619 (PRSP; penicillin-resistant). Description: Broth microdilution MIC. It counts as cell-based. As to conditions: read-out: Measured MIC. The protocol:
as §1, §2, §3

Test [7] deals with Escherichia coli ATCC 25922. Description: Broth microdilution MIC. The format is cell-based. The protocol: as §1, §2, §3
The mark [8] stands for this setting: ATCC29212, read-out: Measured MIC.
Where [9] appears, read: ATCC25922, read-out: Measured MIC.
Where [10] appears, read: read-out: Measured MIC, polC A1281T, strain Efa036, selected on 2 mg/L ACX-641.
The mark [11] stands for this setting: read-out: Measured MIC, polC A1281T, strain Efa040, selected on 4 mg/L ACX-671.
The mark [12] stands for this setting: read-out: Measured MIC, polC F1276I, strain Efa037, selected on 4 mg/L ACX-641.
Setting [13] is: read-out: Measured MIC, polC F1276L, strain Efa030, selected on 16 mg/L ACX-728.
[14] abbreviates: read-out: Measured MIC, polC F1276S, strain Efa3, selected on 16 mg/L ACX-728.

For `CN[C@H](CC(C)C)C(=O)N[C@H]1C(=O)N[C@@H](CC(N)=O)C(=O)N[C@H]2C(=O)N[C@H]3C(=O)N[C@H](C(=O)N[C@H](C(=O)O)c4cc(O)cc(O)c4-c4cc3ccc4O)[C@H](O)c3ccc(c(Cl)c3)Oc3cc2cc(c3O[C@@H]2O[C@H](CO)[C@@H](O)[C@H](O)[C@H]2O[C@H]2C[C@](C)(N)[C@H](O)[C@H](C)O2)Oc2ccc(cc2Cl)[C@H]1O` [VAN, vancomycin], the MIC in test [1] (read-out: Measured MIC) is above 64 µg/mL; in test [2], above 64 µg/mL; in test [3] it was 1 µg/mL (≈ 0.69 µM); in test [4] it was 1 µg/mL (≈ 0.69 µM); in test [5] (setting [8]), 4 µg/mL (≈ 2.76 µM); in test [6], 0.25 µg/mL (≈ 0.173 µM). The MIC in test [7] (setting [9]) is above 64 µg/mL. Moreover, the “Measured MIC” value in test [1] (polC A1281T, strain Efa036, selected on 2 mg/L ACX-641) was above 64 µg/mL; in test [1] (polC F1276I, strain Efa037, selected on 4 mg/L ACX-641) it was above 64 µg/mL; in test [1] (polC F1276L, strain Efa030, selected on 16 mg/L ACX-728) it was above 64 µg/mL; in test [1] (polC F1276S, strain Efa3, selected on 16 mg/L ACX-728), above 64 µg/mL; in test [2] it was above 64 µg/mL.

On to `CCCCCCCCCC(=O)N[C@@H](Cc1c[nH]c2ccccc12)C(=O)N[C@H](CC(N)=O)C(=O)N[C@@H](CC(=O)O)C(=O)N[C@@H]1C(=O)NCC(=O)N[C@@H](CCCN)C(=O)N[C@@H](CC(=O)O)C(=O)N[C@H](C)C(=O)N[C@@H](CC(=O)O)C(=O)NCC(=O)N[C@H](CO)C(=O)N[C@@H]([C@H](C)CC(=O)O)C(=O)N[C@@H](CC(=O)c2ccccc2N)C(=O)O[C@@H]1C` [DAP, daptomycin], for which the MIC in test [1] (setting [10]) is 4 µg/mL; in test [1] (setting [11]), 4 µg/mL; in test [1] (setting [12]), 2 µg/mL; in test [1] (setting [13]) it was 2 µg/mL; in test [1] (setting [14]) it was 2 µg/mL; in test [2], 4 µg/mL (≈ 2.47 µM). Besides, the MIC in test [3] is 1 µg/mL (≈ 0.617 µM); in test [5] (setting [8]), 8 µg/mL (≈ 4.94 µM); in test [6], 0.5 µg/mL (≈ 0.309 µM); in test [7] (setting [9]), above 64 µg/mL. For the same compound, the “Measured MIC” value in test [2] was found to be 4 µg/mL.

As to `CN(C)c1cc(CNCC(C)(C)C)c(O)c2c1C[C@H]1C[C@H]3[C@H](N(C)C)C(O)=C(C(N)=O)C(=O)[C@@]3(O)C(O)=C1C2=O` [OMC, omadacycline], the MIC was 0.12 µg/mL in test [1] (setting [10]); 0.12 µg/mL in test [1] (setting [11]); at most 0.06 µg/mL in test [1] (setting [12]); 0.12 µg/mL in test [1] (setting [13]); at most 0.06 µg/mL in test [1] (setting [14]); 0.12 µg/mL (≈ 0.216 µM) in test [2] (E. faecium VRE ATCC 700221, Table 1, single replicate). Further, the MIC was 0.5 µg/mL (≈ 0.898 µM) in test [3] (S. aureus ATCC 29213, Table 1, single replicate); 0.25 µg/mL (≈ 0.449 µM) in test [5] (ATCC29212, E. faecalis ATCC 29212, Table 1, single replicate, read-out: Measured MIC); at most 0.06 µg/mL in test [6] (S. pneumoniae PRSP ATCC 49619, Table 1, single replicate); 1 µg/mL (≈ 1.8 µM) in test [7] (ATCC25922, E. coli ATCC 25922, Table 1, single replicate, read-out: Measured MIC). Further, the “Measured MIC” value in test [2] came to 0.12 µg/mL.
